≈ marks a conversion by molar mass, not a printed value.
Key:
[1] = system: Mycobacterium tuberculosis; assay: Antitubercular activity against Mycobacterium tuberculosis; assay type: functional; details: for MIC: Mycobacterium tuberculosis
[2] = Lipophilicity, log P of the compound; details: octanol/water
[3] = system: Mycobacterium tuberculosis; assay: Antitubercular activity against Mycobacterium tuberculosis BCG; assay type: functional

| SMILES | log(1/MIC) [1] | MIC [1] | logP ([2]; logP) | MIC [3] | log(1/MIC) [3] | logP [2] |
| --- | --- | --- | --- | --- | --- | --- |
| NNC(=O)c1ccc([N+](=O)[O-])o1 | 0.1 | 0.8 µg/mL (≈ 4.68 µM) | -0.396 | – | – | – |
| NNC(=O)c1ccccc1[N+](=O)[O-] | -2.48 | 300 µg/mL (≈ 1660 µM) | -1.1 | – | – | – |
| NNC(=O)c1ccncn1 | – | – | -2.87 | 20 µg/mL (≈ 145 µM) | -1.301 | – |
| NNC(=O)c1c[nH]cn1 | -0.9 | 8 µg/mL (≈ 63.4 µM) | -2.85 | – | – | – |
| NNC(=O)c1ccnc2ccccc12 | -1.9 | 80 µg/mL (≈ 427 µM) | -1.35 | – | – | – |
| NNC(=O)c1cccc([N+](=O)[O-])c1 | 0.22 | 0.6 µg/mL (≈ 3.31 µM) | -1.1 | – | – | – |
| CN(C)C(=O)N1CCC(C(=O)NN)CC1 | -2.78 | 600 µg/mL (≈ 2800 µM) | -3.12 | – | – | – |
| CC(=O)NNC(=O)c1ccncc1 | -1.18 | 15 µg/mL (≈ 83.7 µM) | -3.45 | – | – | – |
| Cc1ccc(C)n1NC(=O)c1cccs1 | – | – | 1.98 | 40 µg/mL (≈ 182 µM) | -1.602 | – |
| CC(=O)N(Nc1ccccc1)c1ccccc1 | -2 | 100 µg/mL (≈ 442 µM) | 1.31 | – | – | – |
| O=C(NNC(=O)c1ccco1)c1ccco1 | -2 | 100 µg/mL (≈ 454 µM) | 1.38 | – | – | – |
| NNC(=O)c1nc2ccccc2s1 | – | – | -1.08 | 8 µg/mL (≈ 41.4 µM) | -0.9031 | – |
| Cc1c(C(=O)NN)sc(C(=O)NN)c1C | – | – | – | 30 µg/mL (≈ 131 µM) | -1.477 | -2.888 |
| NNC(=O)CN1CSC(N)=N1 | -2.48 | 300 µg/mL (≈ 1710 µM) | – | – | – | -4.033 |
| C/C(=N\NC(=O)c1ccncc1)c1cccc(CN2CCCCC2)c1O | -0.21 | 1.62 µg/mL (≈ 4.6 µM) | 2.55 | – | – | – |
| C/C(=N\NC(=O)c1ccncc1)c1cccc(CN2CCN(C)CC2)c1O | -0.52 | 3.28 µg/mL (≈ 8.93 µM) | 1.99 | – | – | – |
| CC(C)=NNC(=O)c1cccs1 | 0.35 | 0.45 µg/mL (≈ 2.47 µM) | -0.404 | – | – | – |
| CC(C)(C#N)NNC(=O)c1cccs1 | – | – | 0.147 | 3 µg/mL (≈ 14.3 µM) | -0.4771 | – |
| O=C(N/N=C/C(O)C(O)C(O)C(O)CO)c1cccs1 (stereo not drawn) | – | – | – | 0.6 µg/mL (≈ 1.97 µM) | 0.2218 | -4.917 |
| NNC(=O)c1ccc[nH]1 | – | – | -1.99 | 60 µg/mL (≈ 479 µM) | -1.778 | – |
| NNC(=O)Cc1cc2ccccc2[nH]1 | – | – | -1.61 | 60 µg/mL (≈ 317 µM) | -1.778 | – |
| NNC(=O)c1nc2ccccc2[nH]1 | – | – | -1.73 | 15 µg/mL (≈ 85.1 µM) | -1.176 | – |

| SMILES | log(1/MIC) [1] | MIC [1] | logP ([2]; logP) | MIC [3] | log(1/MIC) [3] | logP [2] |
| --- | --- | --- | --- | --- | --- | --- |
| NNC(=O)c1nccnc1C(=O)NN | – | – | – | 15 µg/mL (≈ 76.5 µM) | -1.176 | -5.666 |
| NNC(=O)c1cnc(N)s1 | – | – | -2.78 | 6 µg/mL (≈ 37.9 µM) | -0.7782 | – |
| NNC(=O)c1csc(N)n1 | – | – | -2.69 | 3 µg/mL (≈ 19 µM) | -0.4771 | – |
| CN(C)NC(=O)c1ccco1 | -2.48 | 300 µg/mL (≈ 1950 µM) | 0.653 | – | – | – |
| CC(C)/C=N\NC(=O)c1ccco1 | 0.82 | 0.15 µg/mL (≈ 0.832 µM) | 1.19 | – | – | – |
| O=C(N/N=C/C(O)C(O)C(O)C(O)CO)c1ccco1 (stereo not drawn) | -0.78 | 6 µg/mL (≈ 20.8 µM) | -3.86 | – | – | – |
| CC(=O)NNC(=O)c1ccco1 | -2.78 | 600 µg/mL (≈ 3570 µM) | -1.26 | – | – | – |
| NNC(=O)C1CCCO1 (stereo not drawn) | 0.52 | 0.3 µg/mL (≈ 2.31 µM) | -2.12 | – | – | – |
| NNC(=O)c1cccs1 | -0.9 | 8 µg/mL (≈ 56.3 µM) | -1.2 | – | – | – |
| NNS(=O)(=O)c1ccc(N)cc1 | -1.4 | 25 µg/mL (≈ 134 µM) | -1.85 | – | – | – |
| CC(=O)NNC(C)=O | -2.78 | 600 µg/mL (≈ 5170 µM) | -3.91 | – | – | – |
| CON1C(=O)C(=O)N1c1ccc([N+](=O)[O-])cc1 | 1.52 | 0.03 µg/mL (≈ 0.126 µM) | 0.963 | – | – | – |
| Nc1ccc(S(=O)(=O)NNC(=O)c2ccncc2)cc1 | -2.78 | 600 µg/mL (≈ 2050 µM) | -2.51 | – | – | – |
| Cc1ncnc(O)c1C(=O)NN | -2.6 | 400 µg/mL (≈ 2380 µM) | -2.88 | – | – | – |
| NNC(=O)/C=C/C(=O)NN | -1.9 | 80 µg/mL (≈ 555 µM) | – | – | – | – |
| N/N=C/C(O)C(O)C(O)C(CC(=O)c1ccncc1)C(=O)c1ccncc1 (stereo not drawn) | 1.4 | 0.04 µg/mL (≈ 0.107 µM) | – | – | – | -5.16 |
| CNC1C(OC2C(OC3C(O)C(O)C(NC(=N)N)C(O)C3NC(=N)N)OC(C)C2(O)/C=N\NC(=O)c2ccncc2)OC(CO)C(O)C1O (stereo not drawn) | 0.82 | 0.15 µg/mL (≈ 0.214 µM) | – | – | – | – |
| CC(C)Cc1cc(C(=O)NN)ccn1 | -1.94 | 87 µg/mL (≈ 450 µM) | -0.216 | – | – | – |
| CCOc1cc(C(=O)NN)ccn1 | -1.91 | 81.5 µg/mL (≈ 450 µM) | -1.5 | – | – | – |
| CC(=O)Nc1cc(C(=O)NN)ccn1 | -2.62 | 418 µg/mL (≈ 2150 µM) | -2.93 | – | – | – |
| CCN(CC)c1cc(C(=O)NN)ccn1 | -2.17 | 149 µg/mL (≈ 717 µM) | -0.546 | – | – | – |
| NNC(=O)c1ccnc(Cl)c1 | -1.83 | 67.3 µg/mL (≈ 392 µM) | -1.61 | – | – | – |

| SMILES | log(1/MIC) [1] | MIC [1] | logP ([2]; logP) | MIC [3] | log(1/MIC) [3] | logP [2] |
| --- | --- | --- | --- | --- | --- | --- |
| NNC(=O)c1ccnc([N+](=O)[O-])c1 | -1.83 | 67.6 µg/mL (≈ 371 µM) | -2.21 | – | – | – |
| NNC(=O)c1ccnc(-c2ccccc2)c1 | -1.03 | 10.7 µg/mL (≈ 50 µM) | -0.634 | – | – | – |
| CCN(CC)c1ccc(/C=N/NC(=O)c2ccncc2)cc1 | 0.22 | 0.6 µg/mL (≈ 2.02 µM) | 2.53 | – | – | – |
| CCN(CC)CCN(C)c1ccc(/C=N/NC(=O)c2ccncc2)cc1 | 1.1 | 0.08 µg/mL (≈ 0.226 µM) | 2.43 | – | – | – |
| N/N=C/C(CC(=O)c1ccncc1)C(=O)c1ccncc1 (stereo not drawn) | 0.82 | 0.15 µg/mL (≈ 0.531 µM) | -2.83 | – | – | – |
| NNC(=O)c1ccccn1 | 0.82 | 0.15 µg/mL (≈ 1.09 µM) | -1.95 | – | – | – |
| NNC(=O)c1cncs1 | – | – | -2.2 | 10 µg/mL (≈ 69.8 µM) | -1 | – |
| NNC(=O)c1ccnc(F)c1 | -1.61 | 40.3 µg/mL (≈ 260 µM) | -2.18 | – | – | – |
| NNC(=O)c1c[nH]c(S)n1 | -2.4 | 250 µg/mL (≈ 1580 µM) | -2.26 | – | – | – |
| Cc1cnccc1C(=O)NN | -2.3 | 200 µg/mL (≈ 1320 µM) | -1.67 | – | – | – |
| NNC(=O)Cc1ccccc1 | -1.08 | 12 µg/mL (≈ 79.9 µM) | -1.22 | – | – | – |
| Cn1cncc1C(=O)NN | – | – | -2.55 | 300 µg/mL (≈ 2140 µM) | -2.477 | – |
| NNC(=O)c1ccco1 | 1.22 | 0.06 µg/mL (≈ 0.476 µM) | -0.139 | – | – | – |
| NNC(=O)c1ccnc(Br)c1 | -2.12 | 133 µg/mL (≈ 616 µM) | -1.46 | – | – | – |
| NNC(=O)c1cscn1 | – | – | -2.05 | 15 µg/mL (≈ 105 µM) | -1.176 | – |
| CN1CCC(C(=O)NN)CC1 | -2.78 | 600 µg/mL (≈ 3820 µM) | -2.49 | – | – | – |
| O=C(NO)c1ccncc1 | -2.08 | 120 µg/mL (≈ 869 µM) | -2.65 | – | – | – |
| O=C(NNC(=O)c1cccs1)c1cccs1 | – | – | -0.738 | 15 µg/mL (≈ 59.4 µM) | -1.176 | – |
| O=C(NN=C1CCCCC1)c1ccncc1 | 2.22 | 0.01 µg/mL (≈ 0.046 µM) | -0.334 | – | – | – |
| NNC(=O)c1cccnc1 [NICOTINIC ACID HYDRAZIDE] | – | – | – | 2 µg/mL (≈ 14.6 µM) | -0.301 | -2.32 |
| NNC(=O)c1cnccn1 [PYRAZINE CARBOXYLIC ACID HYDRAZIDE] | – | – | -2.87 | 1.5 µg/mL (≈ 10.9 µM) | -0.1761 | – |

From ChEMBL document CHEMBL3091347, “Comparison of Multiple Linear Regressions and Neural Networks based QSAR models for the design of new antitubercular compounds” (Eur J Med Chem, 2013)
